Reference: patent US20060122275A1, “Agentfor reducing side effects of diclofenac” (priority 2002, published 2006)

Tests used:
[1] = biological target: IP receptor (Homo sapiens, UniProt P43119); conditions: stated in words, no test described; cited from earlier work
[2] = biological target: T1, EP1 receptor (Homo sapiens, UniProt P34995); conditions: stated in words, no test described; cited from earlier work
T1 sequence (P34995 1-402): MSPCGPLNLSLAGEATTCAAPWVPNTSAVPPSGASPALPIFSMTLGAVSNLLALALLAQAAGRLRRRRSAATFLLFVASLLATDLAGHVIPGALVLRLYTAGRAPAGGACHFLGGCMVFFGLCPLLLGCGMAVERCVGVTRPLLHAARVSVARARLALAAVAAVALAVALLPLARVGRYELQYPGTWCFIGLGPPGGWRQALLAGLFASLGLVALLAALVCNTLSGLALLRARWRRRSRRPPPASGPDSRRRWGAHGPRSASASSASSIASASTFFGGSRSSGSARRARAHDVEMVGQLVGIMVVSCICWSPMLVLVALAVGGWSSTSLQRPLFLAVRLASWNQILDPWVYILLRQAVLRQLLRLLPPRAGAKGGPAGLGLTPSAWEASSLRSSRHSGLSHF

[3] = biological target: T2, EP3 receptor (Homo sapiens, UniProt P43115); conditions: stated in words, no test described; cited from earlier work
T2 sequence (P43115 1-390): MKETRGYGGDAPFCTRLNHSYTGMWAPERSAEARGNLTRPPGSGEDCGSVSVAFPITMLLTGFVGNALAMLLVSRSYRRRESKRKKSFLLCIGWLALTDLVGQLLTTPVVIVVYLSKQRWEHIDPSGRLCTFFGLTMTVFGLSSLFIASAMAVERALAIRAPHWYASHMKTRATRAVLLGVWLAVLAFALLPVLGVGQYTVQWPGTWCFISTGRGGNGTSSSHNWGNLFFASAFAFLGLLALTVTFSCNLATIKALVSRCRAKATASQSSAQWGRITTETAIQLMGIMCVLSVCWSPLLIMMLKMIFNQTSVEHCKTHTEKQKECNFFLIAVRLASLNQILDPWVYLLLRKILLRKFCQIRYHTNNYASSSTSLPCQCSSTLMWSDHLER

[4] = biological target: EP4 receptor (Homo sapiens, UniProt P35408); conditions: stated in words, no test described; cited from earlier work
Sequence of EP4 receptor (P35408 whole entry): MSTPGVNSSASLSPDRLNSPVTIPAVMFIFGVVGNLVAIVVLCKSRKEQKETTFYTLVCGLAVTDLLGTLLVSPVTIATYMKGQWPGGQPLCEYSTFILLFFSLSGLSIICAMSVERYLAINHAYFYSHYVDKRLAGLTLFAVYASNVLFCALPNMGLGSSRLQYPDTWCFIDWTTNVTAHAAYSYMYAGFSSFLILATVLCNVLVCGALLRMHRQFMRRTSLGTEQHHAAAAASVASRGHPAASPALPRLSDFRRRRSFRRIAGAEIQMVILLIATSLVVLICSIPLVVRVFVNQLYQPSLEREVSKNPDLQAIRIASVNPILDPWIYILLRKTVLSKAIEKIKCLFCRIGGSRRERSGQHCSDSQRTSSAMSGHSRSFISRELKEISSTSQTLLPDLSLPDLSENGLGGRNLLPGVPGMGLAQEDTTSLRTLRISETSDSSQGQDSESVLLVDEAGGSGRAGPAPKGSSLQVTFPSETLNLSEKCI

[5] = test system: Mycobacterium butyricum-induced inflammation, squeaking reaction; assay: Analgesic effect in inflammation model (squeaking reaction); format: in vivo, Lew/Crj line male rats; conditions: OU administered vs OU un-administered group
Description: After measuring body weight of Lew/Crj line male rats, Mycobacterium butyricum cells suspended in liquid paraffin was administered by intracutaneous injection into the sole of left-side hind leg of each animal, under ether anesthesia at a dose of 0.1 ml/animal, thereby inducing inflammation. Also, this day was used as the 1st day of the inflammation induction treatment. […] Also, they were fasted for 16 to 24 hours under free water taking from the previous day of the measurement. […] A rat which was squeaking reaction-negative once or more by the 4 times of judgment after the sample liquid administration was judged analgesic effect-positive, and efficacy ratio (the number of animals having analgesic effect/the number of tested animals) was calculated. In addition, ulcer inhibition ratio was calculated in the same manner as described in (1).

[6] = test system: glycerol-induced nephropathy; assay: Effect of ornoprostil on glycerol-induced nephropathy; format: in vivo, SPF/Crj line male rats; conditions: serum 48 hours after glycerol, rats
Description: SPF/Crj line male rats (9 week-old) were measured for their body weight and then divided into groups in such a manner that average of body weights of respective groups became almost uniform. A 50% glycerol solution (medium: physiological saline) (10 ml/kg) was administered by subcutaneous injection to each rat which had been abstained from water for 48 hours (±2 hours) but under feeding, and about 1.5 ml of blood was collected 48 hours thereafter from jugular vein under ether anesthesia. […] Water was provided 2 hours after the glycerol administration. The thus collected blood was centrifuged (about 4° C., 3,000 rpm, 15 minutes) to obtain serum. The thus obtained serum was subjected to the measurement of […] (to be referred to as UN) (urease-G1DH method) and creatinine (to be referred to as CRE) (creatininase-F-DAOS method) using a biochemical automatic analyzer (AU 400 (trade name), Olympus Optical).

[7] = test system: acid secretion; conditions: stated in words, no test described; cited from earlier work
[8] = test system: gastrointestinal mucous membrane; conditions: stated in words, no test described; cited from earlier work
[9] = GC (subcutaneous) + OU (3 μg) oral
[10] = GC (subcutaneous) + OU (10 μg) oral

Sequence of IP receptor (P43119 whole entry): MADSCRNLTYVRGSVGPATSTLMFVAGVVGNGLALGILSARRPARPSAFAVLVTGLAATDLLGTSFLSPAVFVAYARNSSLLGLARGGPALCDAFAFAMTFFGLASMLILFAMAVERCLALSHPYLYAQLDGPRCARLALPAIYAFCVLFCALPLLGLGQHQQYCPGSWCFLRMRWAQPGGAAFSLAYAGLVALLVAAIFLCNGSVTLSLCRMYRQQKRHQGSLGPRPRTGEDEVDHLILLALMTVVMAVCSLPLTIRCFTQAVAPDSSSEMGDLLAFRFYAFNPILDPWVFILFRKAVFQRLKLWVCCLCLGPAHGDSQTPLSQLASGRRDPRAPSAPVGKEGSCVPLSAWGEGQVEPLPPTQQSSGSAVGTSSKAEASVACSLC

CCCCC(C)(O)C/C=C/[C@H]1[C@H](O)CC(=O)[C@@H]1CCCCCCC(=O)O (mixture of isomers) [misoprostol active body]
Affinity for IP receptor [1]: hardly has affinity | Affinity for EP1 receptor [2]: weak | Affinity for EP3 receptor [3]: strong | Affinity for EP4 receptor [4]: strong

CCCC[C@H](C)C[C@H](O)/C=C/[C@H]1[C@H](O)CC(=O)[C@@H]1CC(=O)CCCCC(=O)OC [ornoprostil, 17S,20-dimethyl-6-oxo-prostaglandin E1 methyl ester]
Influence of OU administration upon the analgesic effect of NSAID [5]: did not exert influence | CRE [6, 9]: 1.38 mg/dL | UN [6, 9]: 89.7 mg/dL | CRE [6, 10]: 1.03 mg/dL | UN [6, 10]: 79.9 mg/dL | Acid secretion inhibitory activity [7]: weak | Site protection activity [8]: strong
